The values that follow come from patent US20250228239A1, “MOLECULES HAVING PESTICIDAL UTILITY, AND INTERMEDIATES, COMPOSITIONS, AND PROCESSES, RELATED THERETO” (priority 2024, published 2025).

Common to all, as to assay type: in vivo
Series [1] relates to Beet Armyworm (Spodoptera exigua, LAPHEG). The series can be described thus: Bioassays on Beet Armyworm (BAW), 128-well diet tray assay. The following applies: Spodoptera exigua. The procedure, abridged: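 One to five second-instar larvae per well on artificial diet surface-treated with 50 μg/cm^2 test molecule (applied in 90:10 acetone-water, dried), eight wells per compound. Trays held vented at 25° C., 14:10 light-dark for five to seven days; percent mortality averaged over the eight wells.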

The subject of series [2] is Cabbage Looper (Trichoplusia ni, TRIPNI). As to the kind of experiment: Bioassays on Cabbage Looper (CL), 128-well diet tray assay. The following applies: Trichoplusia ni. Summed up: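 One to five second-instar larvae per well on artificial diet surface-treated with 50 μg/cm^2 test molecule (applied in 90:10 acetone-water, dried). Held 5–7 days at 25° C, 14:10 light-dark; percent mortality recorded per well and averaged over eight wells.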

The test system of series [3] is Yellow Fever Mosquito (Aedes aegypti, AEDSAE). The following applies: for YFM rating: Table ABC / ABC-DP rating. Summed up:
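Compounds from 4000 ppm DMSO stocks were diluted in 90:10 water/acetone and dispensed into wells, then infested with about 1-day-old larvae in liver-powder water. Covered plates were held at room temperature for 3 days and each well was scored for mortality against a rating scale; six replicate plates per compound.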

Where [4] appears, read: Beet Armyworm, rating class, read-out: BAW.
Setting [5] is: Cabbage Looper, rating class, read-out: CL.
The mark [6] stands for this setting: Yellow Fever Mosquito, rating class.
Where [7] appears, read: Table ABC: Biological Results, species BAW, read-out: BAW.
The mark [8] stands for this setting: Table ABC: Biological Results, species CL, read-out: CL.
The mark [9] stands for this setting: Table ABC: Biological Results, species YFM.
[10] abbreviates: Beet Armyworm, Table ABC / ABC-DP rating, read-out: BAW rating.
The mark [11] stands for this setting: Cabbage Looper, Table ABC / ABC-DP rating, read-out: CL rating.

SMILES strings stand for the structures. Like-named read-outs stand apart in the source and are kept apart here.

On to `O=C(Nc1ccccc1)c1c(Cl)ccc(NC(=O)[C@H]2[C@H](c3ccc(F)c(Cl)c3)C2(Cl)Cl)c1F` [F1466, 6-Chloro-3-((1R,3R)-2,2-dichloro-3-(3-chloro-4-fluorophenyl)cyclopropane-1-carboxamido)-2-fluoro-N-phenylbenzamide], for which the pest or weed control at 50 µg/cm2 in series [1] (setting [4]) and in series [2] (setting [5]) was 50 to 100% each time. Further, the YFM entry in series [3] (setting [6]) is reported as “A (80–100)”.

In the case of `Cc1cc(Br)ccc1NC(=O)c1cc(NC(=O)[C@H]2[C@H](c3cc(Cl)cc(Cl)c3)C2(Cl)Cl)ccc1Cl` (relative stereo) [F1054, trans-N-(4-Bromo-2-methylphenyl)-2-chloro-5-(2,2-dichloro-3-(3,5-dichlorophenyl)cyclopropane-1-carboxamido)benzamide], the pest or weed control at 50 µg/cm2 in series [1] (setting [7]) and in series [2] (setting [8]) was 50 to 100% in each case. Further, in series [3] (setting [9]), the YFM entry is recorded as “A (80–100)”.

Take `Nc1c(F)ccc(NC(=O)c2cc(NC(=O)[C@H]3[C@H](c4ccc(F)c(Cl)c4F)C3(Cl)Cl)ccc2Cl)c1F` (relative stereo) [F1049, trans-N-(3-Amino-2,4-difluorophenyl)-2-chloro-5-(2,2-dichloro-3-(3-chloro-2,4-difluorophenyl)cyclopropane-1-carboxamido)benzamide]: the pest or weed control at 50 µg/cm2 in series [1] (setting [7]) and in series [2] (setting [8]) was 50 to 100% in each case. In addition, the YFM entry in series [3] (setting [9]) is “A (80–100)”.

As to `CCOC(C)(C)C(=O)Nc1c(F)ccc(NC(=O)c2cc(NC(=O)[C@H]3[C@H](c4ccc(F)c(C(F)(F)F)c4)C3(Cl)Cl)ccc2Cl)c1F` [F1603, 2-Chloro-5-((1R,3R)-2,2-dichloro-3-(4-fluoro-3-(trifluoromethyl)phenyl)cyclopropane-1-carboxamido)-N-(3-(2-ethoxy-2-methylpropanamido)-2,4-difluorophenyl)benzamide], the pest or weed control at 50 µg/cm2 in series [1] (setting [4]) and in series [2] (setting [5]) was 50 to 100% throughout. For the same molecule, in series [3] (setting [6]), the YFM entry was “A (80–100)”.

`O=C(CCNC(=O)c1cc(NC(=O)C2C(c3cc(Cl)cc(Cl)c3)C2(Cl)Cl)ccc1Cl)NCC(F)(F)F` [F2079, trans-2-Chloro-5-((1R,3R)-2,2-dichloro-3-(3,5-dichlorophenyl)cyclopropane-1-carboxamido)-N-(3-oxo-3-(2,2,2-trifluoroethylamino)propyl)benzamide]: the pest or weed control at 50 µg/cm2 in series [1] (setting [10]) and in series [2] (setting [11]) was 50 to 100% in each case. The YFM rating result in series [3] (Yellow Fever Mosquito) is “A (80–100)”.

With `CC(Cl)(Cl)C(=O)Nc1c(F)ccc(NC(=O)c2cc(NC(=O)[C@H]3[C@H](c4ccc(F)c(C(F)(F)F)c4)C3(Cl)Cl)ccc2Cl)c1F` [F1351, 2-Chloro-5-((1R,3R)-2,2-dichloro-3-(4-fluoro-3-(trifluoromethyl)phenyl)cyclopropane-1-carboxamido)-N-(3-(2,2-dichloropropanamido)-2,4-difluorophenyl)benzamide], the pest or weed control at 50 µg/cm2 in series [1] (setting [7]) and in series [2] (setting [8]) was 50 to 100% each time. Moreover, in series [3] (setting [9]), the YFM result is “A (80–100)”.

With `O=C(NCC(F)(F)F)c1cc(NC(=O)[C@H]2[C@@H](c3ccc(F)c(Cl)c3F)C2(Cl)Cl)ccc1Cl` (relative stereo) [F2010, cis-2-Chloro-5-(2,2-dichloro-3-(3-chloro-2,4-difluorophenyl)cyclopropane-1-carboxamido)-N-(2,2,2-trifluoroethyl)benzamide], the pest or weed control at 50 µg/cm2 in series [1] (setting [10]) and in series [2] (setting [11]) was 50 to 100% throughout. Further, the YFM rating entry in series [3] (Yellow Fever Mosquito) is listed as “A (80–100)”.

`Nc1c(F)ccc(NC(=O)c2cc(NC(=O)[C@H]3[C@H](c4cc(F)cc(C(F)(F)F)c4)C3(Cl)Cl)ccc2Cl)c1F` [F1687, N-(3-Amino-2,4-difluorophenyl)-2-chloro-5-((1R,3R)-2,2-dichloro-3-(3-fluoro-5-(trifluoromethyl)phenyl)cyclopropane-1-carboxamido)benzamide]: the pest or weed control at 50 µg/cm2 in series [1] (setting [4]) and in series [2] (setting [5]) was 50 to 100% throughout. In addition, the YFM entry in series [3] (setting [6]) is “A (80–100)”.

Regarding `COc1ccc(NNC(=O)c2cc(NC(=O)[C@H]3[C@H](c4cc(Cl)cc(Cl)c4)C3(Cl)Cl)ccc2Cl)cc1` (relative stereo) [F2563, trans-2,2-Dichloro-N-(4-chloro-3-(2-(4-methoxyphenyl)hydrazine-1-carbonyl)phenyl)-3-(3,5-dichlorophenyl)cyclopropane-1-carboxamide], the mortality at 50 µg/cm2 in series [1] (168 h, second instar larvae, 50 μg/cm^2 of test molecule on artificial diet, 25° C., five to seven days, average of eight wells, read-out: BAW % Control (or Mortality) rating) is 50 to 100%; in series [2] (168 h, second instar larvae, 50 μg/cm^2 of test molecule on artificial diet, 25° C., five to seven days, average of eight wells, read-out: CL % Control (or Mortality) rating), 50 to 100%. For the same molecule, the pest or weed control at 50 µg/cm2 in series [1] (setting [10]) and in series [2] (setting [11]) was 50 to 100% throughout. Moreover, in series [3] (Yellow Fever Mosquito), the YFM rating result is listed as “B (More than 0 – Less than 80)”. Moreover, in series [3] (about 1 day-old larvae, 4000 ppm master solution diluted with 90:10 water/acetone, 15 μL per well plus 220 μL larval mixture, 3 days, mortality), the “YFM % Control (or Mortality) rating” value is “B (More than 0 – Less than 80)”.

With `O=C(Nc1ccc(F)c(NC(=O)C(F)F)c1F)c1cc(NC(=O)[C@H]2[C@H](c3cccc(F)c3)C2(Cl)Cl)ccc1Cl` (relative stereo) [F1602, trans-2-Chloro-5-(2,2-dichloro-3-(3-fluorophenyl)cyclopropane-1-carboxamido)-N-(3-(2,2-difluoroacetamido)-2,4-difluorophenyl)benzamide], the pest or weed control at 50 µg/cm2 in series [1] (setting [4]) and in series [2] (setting [5]) was 50 to 100% in each case. In addition, the YFM entry in series [3] (setting [6]) is “A (80–100)”.

As for `CC(OC(F)(F)F)C(=O)Nc1c(F)ccc(NC(=O)c2cc(NC(=O)[C@H]3[C@H](c4cccc(C(F)(F)F)c4)C3(Cl)Cl)ccc2Cl)c1F` (stereo partly drawn) [F1775, 2-Chloro-5-((1R,3R)-2,2-dichloro-3-(3-(trifluoromethyl)phenyl)cyclopropane-1-carboxamido)-N-(2,4-difluoro-3-(2-(trifluoromethoxy)propanamido)phenyl)benzamide], the pest or weed control at 50 µg/cm2 in series [1] (setting [10]) and in series [2] (setting [11]) was 50 to 100% throughout. For the same molecule, the YFM rating result in series [3] (Yellow Fever Mosquito) is recorded as “A (80–100)”.

Take `COc1c(F)cc(NC(=O)[C@H]2[C@H](c3ccc(F)c(Cl)c3)C2(Cl)Cl)cc1C(=O)Nc1ccc(F)cc1F` (relative stereo) [F1219, trans-5-(2,2-Dichloro-3-(3-chloro-4-fluorophenyl)cyclopropane-1-carboxamido)-N-(2,4-difluorophenyl)-3-fluoro-2-methoxybenzamide]: the pest or weed control at 50 µg/cm2 in series [1] (setting [7]) and in series [2] (setting [8]) was 50 to 100% in each case. In addition, in series [3] (setting [9]), the YFM result is recorded as “A (80–100)”.

Take `CCNC(=O)c1cc(NC(=O)[C@H]2[C@H](c3ccc(F)c(Cl)c3)C2(Cl)Cl)cc(C)c1F` (relative stereo) [F2029, trans-5-(2,2-Dichloro-3-(3-chloro-4-fluorophenyl)cyclopropane-1-carboxamido)-N-ethyl-2-fluoro-3-methylbenzamide]: the pest or weed control at 50 µg/cm2 in series [1] (setting [10]) and in series [2] (setting [11]) was 50 to 100% throughout. Besides, the YFM rating result in series [3] (Yellow Fever Mosquito) is given as “A (80–100)”.

Regarding `O=C(NCC(F)(F)F)c1cc(NC(=O)[C@H]2[C@@H](c3cc(C(F)(F)F)cc(Cl)c3F)C2(Cl)Cl)ccc1Cl` (relative stereo) [F2013, cis-2-Chloro-5-(2,2-dichloro-3-(3-chloro-2-fluoro-5-(trifluoromethyl)phenyl)cyclopropane-1-carboxamido)-N-(2,2,2-trifluoroethyl)benzamide], the pest or weed control at 50 µg/cm2 in series [1] (setting [10]) and in series [2] (setting [11]) was 50 to 100% in each case. In addition, the YFM rating entry in series [3] (Yellow Fever Mosquito) is “A (80–100)”.

For orientation: mortality means the percentage killed.
